The supplement of paper PMC10307832

Key:
Test in all cases: relative viability (nuclei count vs DMSO), 5 days (fraction); higher = more cells survive
RERF-LC-KJ = test system: RERF-LC-KJ
Method in brief: (§1)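 Values are medians from duplicate plates. Each reflects relative viability, defined as the nuclei count of treated wells over that of vehicle wells. Lung cancer cell lines in 1536-well plates were pin-tool dosed one day after seeding with one drug alone or with a fixed anchor-drug dose plus five library-drug doses (not always all listed) in √10 steps, then fixed, stained and imaged at 4× after 5 days.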

NCI-H2126 = test system: NCI-H2126
Method in brief: as §1

NCI-H1666 = test system: NCI-H1666
Method in brief: as §1

COR-L 105 = test system: COR-L 105
Method in brief: as §1

NCI-H520 = test system: NCI-H520
Method in brief: as §1

NCI-H522 = test system: NCI-H522
Method in brief: as §1

NCI-H661 = test system: NCI-H661
Method in brief: as §1

ChaGo-K-1 = test system: ChaGo-K-1
Method in brief: as §1

NCI-H23 = test system: NCI-H23
Method in brief: as §1

NCI-H650 = test system: NCI-H650
Method in brief: as §1

NCI-H647 = test system: NCI-H647
Method in brief: as §1

NCI-H2347 = test system: NCI-H2347
Method in brief: as §1

NCI-H1915 = test system: NCI-H1915
Method in brief: as §1

PC-14 = test system: PC-14
Method in brief: as §1

LC-2-ad = test system: LC-2-ad
Method in brief: as §1

HCC-78 = test system: HCC-78
Method in brief: as §1

201T = test system: 201T
Method in brief: as §1

EPLC-272H = test system: EPLC-272H
Method in brief: as §1

LCLC-97TM1 = test system: LCLC-97TM1
Method in brief: as §1

NCI-H2405 = test system: NCI-H2405
Method in brief: as §1

HCC-827 = test system: HCC-827
Method in brief: as §1

NCI-H2087 = test system: NCI-H2087
Method in brief: as §1

NCI-H322M = test system: NCI-H322M
Method in brief: as §1

H3255 = test system: H3255
Method in brief: as §1

CC(C)Oc1cc(Nc2nc(N[C@@H](C)c3ccc(F)cn3)ncc2Cl)n[nH]1 [AZ23] + COc1cccc2cc(-c3nc([C@H]4CC[C@H](C(=O)O)CC4)n4ncnc(N)c34)[nH]c12 [OSI-027] (partner 0.5 µM) was tested, and the relative viability (RERF-LC-KJ; first compound 0.01 µM) was 0.592, the relative viability (RERF-LC-KJ; first compound 0.03162 µM) was 0.623 and the relative viability (RERF-LC-KJ; first compound 0.3162 µM) was 0.616. It also gave a relative viability (NCI-H2126; first compound 0.01 µM) of 0.692, a relative viability (NCI-H2126; first compound 0.03162 µM) of 0.735 and a relative viability (NCI-H2126; first compound 0.3162 µM) of 0.756. For the same compound, the relative viability (NCI-H1666; first compound 0.01 µM) was 0.847, the relative viability (NCI-H1666; first compound 0.03162 µM) was 0.849 and the relative viability (NCI-H1666; first compound 0.3162 µM) was 0.823. The relative viability (COR-L 105; first compound 0.01 µM) was 0.657, the relative viability (COR-L 105; first compound 0.03162 µM) was 0.849 and the relative viability (COR-L 105; first compound 0.3162 µM) was 0.809. For the same compound, the relative viability (NCI-H520; first compound 0.01 µM) was 0.276, the relative viability (NCI-H520; first compound 0.03162 µM) was 0.281 and the relative viability (NCI-H520; first compound 0.3162 µM) was 0.278. It also gave a relative viability (NCI-H522; first compound 0.01 µM) of 0.639, a relative viability (NCI-H522; first compound 0.03162 µM) of 0.711 and a relative viability (NCI-H522; first compound 0.3162 µM) of 0.563. It also gave a relative viability (NCI-H661; first compound 0.01 µM) of 0.666, a relative viability (NCI-H661; first compound 0.03162 µM) of 0.766 and a relative viability (NCI-H661; first compound 0.3162 µM) of 0.755. The relative viability (ChaGo-K-1; first compound 0.01 µM) was 0.641, the relative viability (ChaGo-K-1; first compound 0.03162 µM) was 0.593 and the relative viability (ChaGo-K-1; first compound 0.3162 µM) was 0.695. It also gave a relative viability (NCI-H23; first compound 0.03162 µM) of 0.58, a relative viability (NCI-H23; first compound 0.3162 µM) of 0.599 and a relative viability (NCI-H650; first compound 0.01 µM) of 0.463. For the same compound, the relative viability (NCI-H650; first compound 0.03162 µM) was 0.564, the relative viability (NCI-H650; first compound 0.3162 µM) was 0.579 and the relative viability (NCI-H647; first compound 0.01 µM) was 0.765. It also gave a relative viability (NCI-H647; first compound 0.03162 µM) of 0.745, a relative viability (NCI-H647; first compound 0.3162 µM) of 0.789 and a relative viability (NCI-H2347; first compound 0.01 µM) of 0.298. The relative viability (NCI-H2347; first compound 0.03162 µM) was 0.262, the relative viability (NCI-H2347; first compound 0.3162 µM) was 0.389 and the relative viability (NCI-H1915; first compound 0.01 µM) was 0.664. The relative viability (NCI-H1915; first compound 0.03162 µM) was 0.635, the relative viability (NCI-H1915; first compound 0.3162 µM) was 0.65 and the relative viability (PC-14; first compound 0.03162 µM) was 1.01. The relative viability (PC-14; first compound 0.3162 µM) was 1.24, the relative viability (LC-2-ad; first compound 0.01 µM) was 0.953 and the relative viability (LC-2-ad; first compound 0.03162 µM) was 0.802. It also gave a relative viability (LC-2-ad; first compound 0.3162 µM) of 0.672, a relative viability (HCC-78; first compound 0.01 µM) of 0.52 and a relative viability (HCC-78; first compound 0.03162 µM) of 0.349. It also gave a relative viability (HCC-78; first compound 0.3162 µM) of 0.322, a relative viability (201T; first compound 0.01 µM) of 0.504 and a relative viability (201T; first compound 0.03162 µM) of 0.827. For the same compound, the relative viability (201T; first compound 0.3162 µM) was 0.728, the relative viability (EPLC-272H; first compound 0.01 µM) was 0.238 and the relative viability (EPLC-272H; first compound 0.03162 µM) was 0.275. For the same compound, the relative viability (EPLC-272H; first compound 0.3162 µM) was 0.256, the relative viability (LCLC-97TM1; first compound 0.01 µM) was 0.495 and the relative viability (LCLC-97TM1; first compound 0.03162 µM) was 0.519. The relative viability (LCLC-97TM1; first compound 0.3162 µM) was 0.586, the relative viability (NCI-H2405; first compound 0.01 µM) was 0.555 and the relative viability (NCI-H2405; first compound 0.03162 µM) was 0.667. It also gave a relative viability (NCI-H2405; first compound 0.3162 µM) of 0.614, a relative viability (HCC-827; first compound 0.01 µM) of 0.78 and a relative viability (HCC-827; first compound 0.03162 µM) of 0.793. The relative viability (HCC-827; first compound 0.3162 µM) was 0.882, the relative viability (NCI-H2087; first compound 0.01 µM) was 0.675 and the relative viability (NCI-H2087; first compound 0.03162 µM) was 0.477. For the same compound, the relative viability (NCI-H2087; first compound 0.3162 µM) was 0.459, the relative viability (NCI-H322M; first compound 0.03162 µM) was 0.594 and the relative viability (NCI-H322M; first compound 0.3162 µM) was 0.521. It also gave a relative viability (H3255; first compound 0.01 µM) of 0.55, a relative viability (H3255; first compound 0.03162 µM) of 0.618 and a relative viability (H3255; first compound 0.3162 µM) of 0.635.
